Experiment [1] deals with Htt-Q74 expressing PC12 cells. As to the kind of experiment: Hsp70 immunoblot after CK2 inhibitor pre-treatment, Htt-Q74 induction and heat shock. Format: cell-based, rat. The conditions noted are these: 0.5, 1 and 5 μM for 15 h prior to doxycycline induction; heat shock 42° C. 1 h, 7 h recovery. The protocol: Then cells were either not treated (−Dox) or treated with doxycycline at 1 microgram/mL during 3 days (+Dox) at 37° C. Cells were then heat shocked at 42° C. (1 h) followed by 7 h recovery (HS) at 37° C. Total protein was analyzed by SDS-PAGE and immunoblotting for Hsp70 and GAPDH. (D) Cells from CK2 kinase inhibitor treatment were analyzed by fluorescence microscopy using GFP as a marker for Htt-Q74 aggregation and the number of cells with inclusions bodies was quantified and normalized with total cell number from DIC images, as a measure of Htt-Q74 protein aggregation. Data are presented as mean±SE from three separate experiments (* P<0.05, ** P<0.01). (E) Htt-Q74 PC12 cells were incubated at 37° C. in a 96-well plate in the presence of either DMSO or the kinase inhibitor TID43 at 5 microMolar final concentration during 15 h prior to Htt-Q74 induction by doxycycline. Cells were then either not treated or treated with doxycycline at 1 microgram/mL for 3 days (+Dox) at 37° C. and then heat shocked at 42° C. (1 h) followed by 7 h recovery (HS) at 37° C. Cell viability was analyzed using the Cell Titer Glo assay (Promega) and values were expressed as percentage of viable cells compared with untreated cells at 37° C. Data are presented as means±SE from three separate experiments (* P<0.05). […]
For orientation: In western blotting, separated proteins are transferred to a membrane and probed.

A further experiment concerns HD cell models. Kind of experiment: HSF1 levels revived with CK2 inhibitors in HD cell models. It counts as cell-based.

Structures are written as SMILES.

As to `Cn1cc(C2=C(c3ccc(Cl)cc3Cl)C(=O)NC2=O)c2ccccc21` [SB216763], in experiment [1], the “HSF1 activation, Hsp70 expression levels (immunoblot)” value is listed as “rescue HSF1 activation, Hsp70 expression levels”. In addition, in the experiment on HD cell models, the HSF1 levels entry was “revived”.

For `Brc1c(Br)c(Br)c2[nH]cnc2c1Br` [TBBz], the HSF1 levels entry in the experiment with HD cell models is recorded as “revived”.

In the case of `O=C(O)c1c[nH]c2c(Cl)c(Cl)ccc2c1=O` [Cay10577, 7,8-dichloro-1,4-dihydro-4-oxo-3-quinolinecarboxylic acid], in the experiment on HD cell models, the HSF1 levels entry is recorded as “revived”.

For the compound `Cc1cc(O)c2c(c1)C(=O)c1cc(O)cc(O)c1C2=O` [Emodin], in experiment [1], the “HSF1 activation, Hsp70 expression levels (immunoblot)” value is listed as “rescue HSF1 activation, Hsp70 expression levels”.

The values above are taken from patent US20170227553A1, “COMPOSITIONS AND METHODS FOR IDENTIFYING AND TREATING CONDITIONS INVOLVING HSF1 ACTIVITY” (Duke University, priority 2014, published 2017).
